Assay results taken from ChEMBL document CHEMBL3739343, “Identification and activity of inhibitors of the essential nematode-specific metalloprotease DPY-31” (Bioorg Med Chem Lett, 2015).
Calls of active or inactive are those of the source. The calls are words filed in the database; no cut-off is given here. Where a SMILES comes first, the peptide text is derived from it.

How the values were obtained:
[1] = molecular target: T1, Zinc metalloproteinase dpy-31 (Brugia malayi, UniProt A8Q2D1); test: Inhibition of recombinant Brugia malayi DPY-31 astacin domain expressed in Escherichia coli using Suc-Ala-Ala-Ala-pNA as substrate preincubated for 3 hrs followed by substrate addition measured after 3 hrs by microplate reader assay
T1 sequence (A8Q2D1 whole entry): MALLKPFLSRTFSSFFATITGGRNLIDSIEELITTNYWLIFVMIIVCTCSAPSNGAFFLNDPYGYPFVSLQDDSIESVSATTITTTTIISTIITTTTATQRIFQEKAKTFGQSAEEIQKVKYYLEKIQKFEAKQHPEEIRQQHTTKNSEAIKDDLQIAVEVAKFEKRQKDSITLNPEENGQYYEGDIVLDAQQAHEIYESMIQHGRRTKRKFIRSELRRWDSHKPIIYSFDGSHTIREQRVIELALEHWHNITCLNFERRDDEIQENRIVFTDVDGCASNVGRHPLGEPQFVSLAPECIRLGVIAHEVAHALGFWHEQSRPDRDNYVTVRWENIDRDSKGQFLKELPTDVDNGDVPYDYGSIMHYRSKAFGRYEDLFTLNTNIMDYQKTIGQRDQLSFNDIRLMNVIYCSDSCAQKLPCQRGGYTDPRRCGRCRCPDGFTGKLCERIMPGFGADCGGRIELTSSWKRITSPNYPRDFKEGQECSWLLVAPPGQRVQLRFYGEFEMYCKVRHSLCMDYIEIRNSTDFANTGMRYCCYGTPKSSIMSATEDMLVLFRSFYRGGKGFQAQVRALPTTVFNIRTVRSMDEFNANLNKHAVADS

[2] = molecular target: T2, Zinc metalloproteinase dpy-31 (Teladorsagia circumcincta, UniProt A0A0C5PRQ1); test: Inhibition of recombinant Teladorsagia circumcincta DPY-31 astacin domain expressed in Escherichia coli using Suc-Ala-Ala-Ala-pNA as substrate preincubated for 3 hrs followed by substrate addition measured after 3 hrs by microplate reader assay
T2 sequence (A0A0C5PRQ1 whole entry): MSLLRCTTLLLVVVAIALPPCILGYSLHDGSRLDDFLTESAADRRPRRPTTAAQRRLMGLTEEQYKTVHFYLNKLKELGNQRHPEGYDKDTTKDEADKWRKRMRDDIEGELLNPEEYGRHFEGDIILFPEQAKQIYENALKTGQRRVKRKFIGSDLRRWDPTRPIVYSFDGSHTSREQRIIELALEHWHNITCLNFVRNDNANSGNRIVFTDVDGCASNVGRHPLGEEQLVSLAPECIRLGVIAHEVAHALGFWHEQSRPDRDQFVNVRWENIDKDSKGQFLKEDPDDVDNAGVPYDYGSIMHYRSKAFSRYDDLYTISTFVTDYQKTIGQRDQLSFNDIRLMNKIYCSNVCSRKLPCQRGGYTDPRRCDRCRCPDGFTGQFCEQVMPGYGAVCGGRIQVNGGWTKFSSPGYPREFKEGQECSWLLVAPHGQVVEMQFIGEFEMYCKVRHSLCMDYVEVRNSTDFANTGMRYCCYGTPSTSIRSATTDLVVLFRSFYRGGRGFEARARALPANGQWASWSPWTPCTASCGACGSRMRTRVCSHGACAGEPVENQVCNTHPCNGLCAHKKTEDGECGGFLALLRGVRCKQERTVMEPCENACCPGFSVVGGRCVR

Caenorhabditis elegans [3] = test: Antiparasitic activity against Teladorsagia circumcincta dpy-31 transgenically-rescued Caenorhabditis elegans dpy-31 mutant TP224 assessed as induction of Dpy phenotype at 100 uM after 3 days by microscopic analysis; format: functional, organism-based
[4] = test system: Teladorsagia circumcincta; test: Antiparasitic activity against Teladorsagia circumcincta L3 assessed as induction of Dpy phenotype at 500 uM after 3 days by microscopic analysis; format: functional, organism-based
Caenorhabditis elegans [5] = test: Antiparasitic activity against wild type Caenorhabditis elegans N2 assessed as induction of Dpy phenotype at 50 uM measured after 3 days by microscopic analysis; format: functional, organism-based

| Structure (SMILES) | IC50 ([1]; read-out: IC50) [µM] | IC50 [2] [µM] | Activity (Caenorhabditis elegans [3]) | Activity [4] | IC50 ([1]; read-out: pIC50 (converted)) [µM] | Activity (Caenorhabditis elegans [5]) |
| --- | --- | --- | --- | --- | --- | --- |
| COC(=O)[C@@H]1CCCN1C(=O)[C@H](C)CP(=O)(O)[C@H](Cc1ccccc1)NC(=O)[C@H](CCCCN)NC(=O)[C@@H]1CCCN1C(=O)OCc1ccccc1 | > 500 |  |  |  |  |  |
| CNC(=O)[C@@H](NC(=O)[C@H](CC(C)C)[C@H](O)C(=O)NO)C(C)(C)C [MARIMASTAT] |  | 79.4 |  |  |  |  |
| C[C@H](NC(=O)[C@@H]1CCCN1C(=O)OCC1c2ccccc2-c2ccccc21)C(=O)N[C@@H](Cc1ccccc1)C(=O)NO (HELM PEPTIDE1{[O=C(OCC1c2ccccc2-c2ccccc21)[*:2]].P.A.F.[ON[*:1]]}$$$$V2.0) |  | 31.6 | Active | Active | 25.1 | Active |
| C[C@H](NC(=O)[C@@H]1CCCN1C(=O)OC(C)(C)C)C(=O)N[C@@H](Cc1ccccc1)C(=O)NO (HELM PEPTIDE1{[CC(C)(C)OC(=O)[*:2]].P.A.F.[ON[*:1]]}$$$$V2.0) |  | 25.1 | Active | Active | 79.4 | Active |
| O=C(C[C@@H](CCCC1CCCCC1)c1nc(-c2cc(C(=O)O)ccn2)no1)NO |  | 39.8 |  |  | 20 |  |
